From US9687470B2, “Compounds for use in the treatment of filariasis” (RHEINISCHE FRIEDRICH-WILHELMS UNIVERSITAET BONN, priority 2011, dated 2017)
“Also recorded” adds a separate entry of the source.

Legend:
[1] = Tolerability in infected BALB/c mice; assay type: in vivo; settings: 35 mg/kg/day dosage
Experimental: Female BALB/c mice aged 6-8 weeks were purchased from Charles River, Sulzfeld, Germany. The mice were infected with L. sigmodontis larvae as described in by Al-Qaoud K M et al. Beginning the day after the infection, the mice were untreated or given intra-peritoneal injections of: 10% dimethyl sulfoxide (DMSO) (vehicle control), 50 mg/kg/day doxycycline (Merck), or 35 mg/kg/day of corallopyronin A. Doxycycline was given for 14 days while corallopyronin A and 10% DMSO (vehicle control) were given for 28 days. All substances were diluted in phosphate buffered saline (PBS, PAA Laboratories).

[2] = system: Wolbachia of A. albopictus; assay: Susceptibility of Wolbachia to corallopyronin A in vitro (infected C6/36 cells, qPCR 16S-rRNA/actin ratio); assay type: cell-based
Experimental: The activity of corallopyronin A against Wolbachia was tested in vitro using the Aedes albopictus C6/36 cell line infected with Wolbachia of A. albopictus.
The susceptibility of Wolbachia towards corallopyronin A was investigated as described previously (Henrichfreise, Schiefer et al., “Functional conservation of the lipid II biosynthesis pathway in the cell wall-less bacteria Chlamydia and Wolbachia: why is lipid II needed?”, (2009) Mol Microbiol, 73 (5): 913-923) with some modifications.
The A. albopictus cell line C6/36 (European Collection of Cell Cultures) infected with Wolbachia from A. albopictus B containing supernatant as described in Turner et al., J Immunol 2006, 177(2): 1240-1249 were cultured in 96-well plates by seeding each well with 1×10^4 insect cells. The cells were incubated for 9 days at 26° C. in L15 Leibovitz's medium (Invitrogen, Darmstadt, Germany) supplemented with 5% fetal calf serum (FCS, Invitrogen), 1% nonessential amino acids (PAA Laboratories, Colbe, Germany), 0.59 mg/ml tryptose phosphate broth (Sigma, Munich, Germany) and 0.01% penicillin/streptomycin (PAA Laboratories) with and without 4 μg/ml doxycycline (Merck, Darmstadt, Germany) and 1, 0.1 and 0.01 μg/ml corallopyronin A in duplicate. The medium was replaced every third day. The treated cells were harvested on day 9.
Extraction of genomic DNA was performed with the QIAamp Kit (Qiagen, Hilden, Germany) according to the instructions of the manufacturer. Depletion of Wolbachia was monitored by quantitative real-time PCR (qPCR) using the primers 16S-rRNA-Fw (5′-[…]-3′, SEQ ID NO: 1) and 16S-rRNA-Rev (5′-GTGTGGCTGATCATCCTCT-3′, SEQ ID NO: 2) which target the 16S-rRNA gene (GenBank Accession #: X61767) of Wolbachia and Ac-Fw (5′-[…]-3′, SEQ ID NO: 3) and Ac-Rev (5′-[…]-3′, SEQ ID NO: 4) for actin (GenBank Accession #: DQ657949) of the C6/36 cells.
The PCR reaction mixtures were 20 μl of 1× HotStar Taq Buffer (Qiagen), 3 mM MgCl2, 0.2 mM dNTPs (PeqLab, Erlangen, Germany), 0.5 μM forward and reverse 16S-rRNA primers or 0.3 μM forward and reverse actin primers, 0.2 μl of a 1:1000 dilution in DMSO of SybrGreen (Roche, Mannheim, Germany), 0.5 units HotStar Taq polymerase and 2 μl of gDNA. […] Specific amplification was confirmed by a melting curve analysis from 72° C. to 95° C. with fluorescence acquired on the FAM channel at 1° C. intervals. The copy number of each gene was calculated using a plasmid containing the appropriate insert as standard curve. […]
Normal distribution of the data was calculated using the D′Agostino & Pearson omnibus normality test. […] Alls statistics were calculated using GraphPad Prism version 5.00 for Windows, GraphPad Software, San Diego Calif. […]

C6/36 cells = assay type: cell-based, Aedes albopictus
[3] = Stability of corallopyronin A injection samples in PBS by analytical HPLC; assay type: physicochemical; settings: samples in PBS used for injection; days 1, 14 and 28; compared with purified corallopyronin A
Experimental: To verify that the corallopyronin A was stable over the whole period of the in vivo experiment, aliquots of the samples in phosphate buffered saline (PBS, PAA Laboratories, Colbe, Germany) which were used for injection were analyzed by High performance liquid chromatography (HPLC). The conditions for the analytical HPLC runs were the same as above. […] Five weeks post infection worms were recovered from the pleural cavity by lavage with PBS. The worms were sorted by sex with the aid of a dissecting microscope and their lengths measured. 10 female worms from each treatment were individually frozen for DNA extraction.

Wolbachia = assay: Susceptibility of Wolbachia in vivo: depletion from L. sigmodontis worms in infected BALB/c mice (qPCR ftsZ/actin); design: species or system Wolbachia of Litomosoides sigmodontis in BALB/c mice
Experimental: The effect of corallopyronin A in vivo was determined in a rodent model of BALB/c mice infected with the rodent filarial worm Litomosoides sigmodontis host to Wolbachia. L. sigmodontis a well established model for human filarial worms. A key advantage of this model is the fact that administration of anti-wolbachial drugs concomitant with infection by the L. sigmodontis larvae allows for a rapid assessment of activity on the day the worms are retrieved from the infected animals.
The L. sigmodontis life cycle was maintained at the Institute for Medical Microbiology, Immunology and Parasitology as described by Al-Qaoud KM et al. (1997) “Infection of BALB/c mice with the filarial nematode Litomosoides sigmodontis: role of CD4+T cells in controlling larval development”, Infect Immun 65: 2457-2461.
Female BALB/c mice aged 6-8 weeks were purchased from Charles River, Sulzfeld, Germany. […]
To control for degradation over time, an aliquot of corallopyronin A was frozen for HPLC analysis on days 1, 14 and 28. […] The worms were sorted by sex with the aid of a dissecting microscope and their lengths measured. […]
Depletion of Wolbachia was monitored by qPCR using the primers Ls-FtsZ-Fw (5′-[…]-3′, SEQ ID NO: 5) and Ls-FtsZ-Rev (5′-TTGCAATTACTGGTGCTGC-3′, SEQ ID NO: 6) and hybridization probe (5′-6-FAM-[…]-TAMRA-3′, SEQ ID NO: 7) which target ftsZ (GenBank Accession #: AJ010271), a single copy number gene of Wolbachia. […] Cycling conditions were: 95° C. for 15 minutes followed by 35 cycles of 94° C. for 4 seconds, 58° C. for 30 seconds and 72° C. for 15 seconds with fluorescence acquired on the FAM channel as described in Arumugam S et al., Int J Parasitol 2008, 38: 981-987.
To normalize the ftsZ content of worms of different lengths, the L. sigmodontis actin gene (GenBank Accession No.: GU971367) was quantified by qPCR using the primers Ac-Fw (5′-[…]-3′, SEQ ID NO: 8) and Ac-Rev (5′-[…]-3′, SEQ ID NO: 9). […]

Litomosoides sigmodontis = assay: Worm length (larval development) of L. sigmodontis recovered from treated BALB/c mice; assay type: in vivo, Litomosoides sigmodontis in BALB/c mice; settings: worms recovered five weeks post infection
Experimental: The effect of corallopyronin A in vivo was determined in a rodent model of BALB/c mice infected with the rodent filarial worm Litomosoides sigmodontis host to Wolbachia. L. sigmodontis a well established model for human filarial worms. A key advantage of this model is the fact that administration of anti-wolbachial drugs concomitant with infection by the L. sigmodontis larvae allows for a rapid assessment of activity on the day the worms are retrieved from the infected animals. […] The L. sigmodontis life cycle was maintained at the Institute for Medical Microbiology, Immunology and Parasitology as described by Al-Qaoud KM et al. (1997) “Infection of BALB/c mice with the filarial nematode Litomosoides sigmodontis: role of CD4+T cells in controlling larval development”, Infect Immun 65: 2457-2461. Female BALB/c mice aged 6-8 weeks were purchased from Charles River, Sulzfeld, Germany. […] The worms were sorted by sex with the aid of a dissecting microscope and their lengths measured. […] Normal distribution of the data was calculated using the D′Agostino & Pearson omnibus normality test. […] Alls statistics were calculated using GraphPad Prism version 5.00 for Windows, GraphPad Software, San Diego Calif. […]

SMILES: C/C=C/C/C=C(/C)[C@H](O)CC/C(C)=C/C=C(\C)C(=O)c1c(O)cc([C@H](C)CC/C=C/NC(=O)OC)oc1=O [corallopyronin A, methyl N-[(1E)-5-[4-hydroxy-3-[(2E,4E,9Z,12E)-8-hydroxy-2,5,9-trimethyltetradeca-2,4,9,12-tetraenoyl]-2-oxo-2H-pyran-6-yl]hex-1-en-1-yl]carbamate]
- tolerability in mice [1]: well tolerated
- visually apparent toxic effects in mice [1]: no toxic effects were visually apparent
- depletion of Wolbachia relative to doxycycline ([2]; 1 μg/ml versus 4 μg/ml doxycycline, nine days, C6/36 cell line): levels equivalent to 4 μg/ml of the tetracycline doxycycline; also recorded: levels equivalent to those of 4 μg/ml doxycycline
- depletion of Wolbachia ([2]; beginning at 0.1 μg/ml, nine days of treatment, C6/36 cell line): > 50%
- anti-wolbachial effect in vitro ([2]; in vitro tests, summary statement): potent anti-wolbachial effect
- dose dependence of Wolbachia depletion ([2]; nine day assay, 1, 0.1 and 0.01 μg/ml): dose dependent manner
- toxicity to cells / cell growth (C6/36 cells): without apparent cytotoxic effects
- degradation of corallopyronin A (HPLC) [3]: no degradation
- Wolbachia depletion from worms relative to doxycycline (Wolbachia; 35 mg/kg/day for 28 days versus doxycycline 50 mg/kg/day for 14 days): levels below those seen for doxycycline
- depletion of the Wolbachia compared to the control (Wolbachia; BALB/c mice infected with L. sigmodontis, 35 mg/kg/day intra-peritoneal for 28 days): > 99%
- anti-wolbachial effect in vivo (Wolbachia; in vivo tests, summary statement): potent anti-wolbachial effect
- worm length (Litomosoides sigmodontis; 35 mg/kg/day intra-peritoneal for 28 days, control worms 38 mm): 9.0 mm

SMILES: C[C@H]1c2cccc(O)c2C(=O)C2=C(O)[C@]3(O)C(=O)C(C(N)=O)=C(O)[C@@H](N(C)C)[C@@H]3[C@@H](O)[C@@H]21 [doxycycline, reference compound]
- worm length (median) (Litomosoides sigmodontis; doxycycline 50 mg/kg/day intra-peritoneal for 14 days, untreated 38 mm, vehicle 34 mm): 8.3 mm
